Assay: recombinant UMI read abundance after kanamycin selection (control-corrected) (log10(CPM+1)); higher = more efficient recombination; extreme values may be limits of the assay; sequences stand for … in AGTGCAGAGAAAATCGGCCAGTTTTCTCTGCCTGCAGTCCGCATGCCGTGGGACCCCTTGGGTTCTAACCTGTTGCCTAGATTTATGCAGCGGACTGCCTTTCTCCCAAAGTGATAAACCGG…AGGTTGGTTTCACT; site = the 11-nt donor
How it was run: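 Sequenced counts of recombinant UMIs were turned into CPM, averaged across replicates and scaled with control-derived factors. The reported figure is log10(CPM+1). Those UMIs, each 12 nt long, tagged donor and donor-binding-loop pairs on a plasmid with a promoterless kanamycin gene, screened as a pool in Escherichia coli with IPTG (0.07 mM) plus kanamycin or without selection.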
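Further: IS621 bridge recombinase in Escherichia coli cells against a fixed T5 target plasmid.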

Sequence	recombinant UMI read abundance (log10)
CTATTGTCATGGACCGGTTTTCCCGGTAATCCGTATTTGAC (site CTATTGTCTGT)	0
CTCAAAGCATGGACCGGTTTTCCCGGTAATCCGTATTTGCG (site CTCAAAGCTCG)	0.762
CTCAGCCCATGGACCGGTTTTCCCGGTAATCCGTATTTGCC (site CTCAGCCCTGG)	0
CTCAGCTCATGGACCGGTTTTCCCGGTAATCCGTATTTGAA (site CTCAGCTCTTT)	2.08
CTCATTCCATGGACCGGTTTTCCCGGTAATCCGTATTTGCT (site CTCATTCCTAG)	0.523
CTCCAAACATGGACCGGTTTTCCCGGTAATCCGTATTTGGC (site CTCCAAACTGC)	0
CTCCAACCATGGACCGGTTTTCCCGGTAATCCGTATTTGCC (site CTCCAACCTGG)	0
CTCCATGCATGGACCGGTTTTCCCGGTAATCCGTATTTGTC (site CTCCATGCTGA)	2.3
CTCCCGACATGGACCGGTTTTCCCGGTAATCCGTATTTGAG (site CTCCCAACTCT)	0.849
CTCCCGACATGGACCGGTTTTCCCGGTAATCCGTATTTGAG (site CTCCCCACTCT)	0.00318
CTCCCGACATGGACCGGTTTTCCCGGTAATCCGTATTTGAG (site CTCCCGACTCT)	0.968
CTCCCGACATGGACCGGTTTTCCCGGTAATCCGTATTTGAG (site CTCCCTACTCT)	0.0167
CTCCCTACATGGACCGGTTTTCCCGGTAATCCGTATTTGAT (site CTCCCTACTAT)	1.01
CTCCCTACATGGACCGGTTTTCCCGGTAATCCGTATTTGAT (site CTCCCTACTCT)	0.00726
CTCCCTACATGGACCGGTTTTCCCGGTAATCCGTATTTGAT (site CTCCCTACTGT)	0.137
CTCCCTACATGGACCGGTTTTCCCGGTAATCCGTATTTGAT (site CTCCCTACTTT)	0.0164
CTCCCTACATGGACCGGTTTTCCCGGTAATCCGTATTTGGG (site CTCCCTACTCA)	0.037
CTCCCTACATGGACCGGTTTTCCCGGTAATCCGTATTTGGG (site CTCCCTACTCC)	0.0177
CTCCCTACATGGACCGGTTTTCCCGGTAATCCGTATTTGGG (site CTCCCTACTCG)	0.00544
CTCCCTACATGGACCGGTTTTCCCGGTAATCCGTATTTGGG (site CTCCCTACTCT)	0.0127
CTCCCTGCATGGACCGGTTTTCCCGGTAATCCGTATTTGGC (site CTCCCTGCTGC)	0
CTCCGACCATGGACCGGTTTTCCCGGTAATCCGTATTTGAC (site CTCCGACCTGT)	0
CTCCTACCATGGACCGGTTTTCCCGGTAATCCGTATTTGCT (site CTACTACCTAG)	0
CTCCTACCATGGACCGGTTTTCCCGGTAATCCGTATTTGCT (site CTCCTACCTAG)	0
CTCCTACCATGGACCGGTTTTCCCGGTAATCCGTATTTGCT (site CTGCTACCTAG)	0.00362

Sequence	recombinant UMI read abundance (log10)
CTCCTACCATGGACCGGTTTTCCCGGTAATCCGTATTTGCT (site CTTCTACCTAG)	0
CTCGAAACATGGACCGGTTTTCCCGGTAATCCGTATTTGTG (site CTCGAAACTCA)	1.06
CTCGAATCATGGACCGGTTTTCCCGGTAATCCGTATTTGCA (site CTCGAATCTTG)	2.42
CTCGACACATGGACCGGTTTTCCCGGTAATCCGTATTTGGC (site CTCGACACTGC)	1.04
CTCGCAACATGGACCGGTTTTCCCGGTAATCCGTATTTGTT (site CTCGCAACTAA)	1.96
CTCGGAGCATGGACCGGTTTTCCCGGTAATCCGTATTTGAC (site CTCGGAGCTGT)	2.63
CTCGTAACATGGACCGGTTTTCCCGGTAATCCGTATTTGAT (site CTCGTAACTAT)	2.31
CTCGTATCATGGACCGGTTTTCCCGGTAATCCGTATTTGAG (site CTAGTATCTGT)	0
CTCGTATCATGGACCGGTTTTCCCGGTAATCCGTATTTGAG (site CTCGTATCTCT)	1.9
CTCTAAGCATGGACCGGTTTTCCCGGTAATCCGTATTTGTC (site CTCTAAGCTGA)	1.81
CTCTACACATGGACCGGTTTTCCCGGTAATCCGTATTTGAT (site CTCTACACTAA)	0.0183
CTCTACACATGGACCGGTTTTCCCGGTAATCCGTATTTGAT (site CTCTACACTAC)	0.0649
CTCTACACATGGACCGGTTTTCCCGGTAATCCGTATTTGAT (site CTCTACACTAG)	0.00358
CTCTACACATGGACCGGTTTTCCCGGTAATCCGTATTTGAT (site CTCTACACTAT)	2.19
CTCTACACATGGACCGGTTTTCCCGGTAATCCGTATTTGCC (site CTCTACACTAG)	0.72
CTCTACACATGGACCGGTTTTCCCGGTAATCCGTATTTGCC (site CTCTACACTCG)	0.0134
CTCTACACATGGACCGGTTTTCCCGGTAATCCGTATTTGCC (site CTCTACACTGG)	2.37
CTCTACACATGGACCGGTTTTCCCGGTAATCCGTATTTGCC (site CTCTACACTTG)	2.13
CTCTACCCATGGACCGGTTTTCCCGGTAATCCGTATTTGCT (site CTCTACACTAG)	0.274
CTCTACCCATGGACCGGTTTTCCCGGTAATCCGTATTTGCT (site CTCTACCCTAG)	1.74
CTCTACCCATGGACCGGTTTTCCCGGTAATCCGTATTTGCT (site CTCTACGCTAG)	0.00357
CTCTACCCATGGACCGGTTTTCCCGGTAATCCGTATTTGCT (site CTCTACTCTAG)	2.87
CTCTAGACATGGACCGGTTTTCCCGGTAATCCGTATTTGCT (site CTCTAAACTAG)	0.681
CTCTAGACATGGACCGGTTTTCCCGGTAATCCGTATTTGCT (site CTCTACACTAG)	0.119
CTCTAGACATGGACCGGTTTTCCCGGTAATCCGTATTTGCT (site CTCTAGACTAG)	0.576

Sequence	recombinant UMI read abundance (log10)
CTCTAGACATGGACCGGTTTTCCCGGTAATCCGTATTTGCT (site CTCTATACTAG)	0
CTCTCCACATGGACCGGTTTTCCCGGTAATCCGTATTTGCT (site CTCTACACTAG)	0.902
CTCTCCACATGGACCGGTTTTCCCGGTAATCCGTATTTGCT (site CTCTCCACTAG)	2.34
CTCTCCACATGGACCGGTTTTCCCGGTAATCCGTATTTGCT (site CTCTGCACTAG)	0
CTCTCCACATGGACCGGTTTTCCCGGTAATCCGTATTTGCT (site CTCTTCACTAG)	0.534
CTCTGCACATGGACCGGTTTTCCCGGTAATCCGTATTTGCT (site CTCTACACTAG)	0.861
CTCTGCACATGGACCGGTTTTCCCGGTAATCCGTATTTGCT (site CTCTCCACTAG)	0.00325
CTCTGCACATGGACCGGTTTTCCCGGTAATCCGTATTTGCT (site CTCTGCACTAG)	2.1
CTCTGCACATGGACCGGTTTTCCCGGTAATCCGTATTTGCT (site CTCTTCACTAG)	0.00616
CTCTTCTCATGGACCGGTTTTCCCGGTAATCCGTATTTGTA (site CTCTTCTCTTA)	2.1
CTGACTCCATGGACCGGTTTTCCCGGTAATCCGTATTTGGG (site CTGACTCCTCC)	0.44
CTGCAAACATGGACCGGTTTTCCCGGTAATCCGTATTTGCA (site CTGAAAACTTG)	0
CTGCAAACATGGACCGGTTTTCCCGGTAATCCGTATTTGCA (site CTGCAAACTTG)	0.915
CTGCAAACATGGACCGGTTTTCCCGGTAATCCGTATTTGCA (site CTGGAAACTTG)	0
CTGCAAACATGGACCGGTTTTCCCGGTAATCCGTATTTGCA (site CTGTAAACTTG)	0
CTGCACCCATGGACCGGTTTTCCCGGTAATCCGTATTTGGC (site CTGCACCCTGC)	0.469
CTGCAGGCATGGACCGGTTTTCCCGGTAATCCGTATTTGAG (site CTGCAGGCTCT)	1.5
CTGCATGCATGGACCGGTTTTCCCGGTAATCCGTATTTGGT (site ATGCATGCTAC)	0.0144
CTGCATGCATGGACCGGTTTTCCCGGTAATCCGTATTTGGT (site CTGCATGCTAC)	1.57
CTGCATGCATGGACCGGTTTTCCCGGTAATCCGTATTTGGT (site GTGCATGCTAC)	0.0408
CTGCATGCATGGACCGGTTTTCCCGGTAATCCGTATTTGGT (site TTGCATGCTAC)	0.0633
CTGCCAACATGGACCGGTTTTCCCGGTAATCCGTATTTGAA (site CTGCCAACTTT)	0.912
CTGCCGGCATGGACCGGTTTTCCCGGTAATCCGTATTTGCA (site CTGCCGGCTTG)	2.01
CTGCCTACATGGACCGGTTTTCCCGGTAATCCGTATTTGAG (site CTACCTACTCT)	1.04
CTGCCTACATGGACCGGTTTTCCCGGTAATCCGTATTTGAG (site CTCCCTACTCT)	0.00401

Source: the supplement of paper PMC11208160
